Values quoted from earlier work, collected in patent US5703067A, “Inhibitors of farnesyl-protein transferase” (Merck & Co., Inc., priority 1995, dated 1997).

System: farnesyl-protein transferase
Conditions: via HMG-CoA reductase inhibition, literature

Row | SMILES | Indirect inhibition of farnesyl-protein transferase in vivo
1 | CC[C@H](C)C(=O)O[C@H]1CCC=C2C=C[C@H](C)[C@H](CC[C@@H]3C[C@@H](O)CC(=O)O3)[C@H]21 [compactin] | Indirect inhibition of farnesyl-protein transferase in vivo has been demonstrated
2 | CC[C@H](C)C(=O)O[C@H]1C[C@@H](C)C=C2C=C[C@H](C)[C@H](CC[C@@H]3C[C@@H](O)CC(=O)O3)[C@H]21 [lovastatin] | Indirect inhibition of farnesyl-protein transferase in vivo has been demonstrated
